Experimental data taken from patent US20230048132A1, “CYCLIN-DEPENDENT KINASE INHIBITORS” (SPV THERAPEUTICS INC., priority 2018, published 2023).
Like-named read-outs stand apart in the source and are kept apart here.

Assays:
Experiment in all cases: CDK inhibition assay (microfluidic LabChip, IC50 format)
CDK7 CyclinH = CDK7 CyclinH (Homo sapiens, UniProt P50613); format: biochemical; settings: Table 4a
CDK6-CYCLIND3 = molecular target: T1, CDK6-CYCLIND3 (Homo sapiens, UniProt Q00534); format: biochemical; settings: read-out: CDK6 CyclinD3 IC50
T1 construct: purchased Carna
T1 sequence (Q00534 whole entry): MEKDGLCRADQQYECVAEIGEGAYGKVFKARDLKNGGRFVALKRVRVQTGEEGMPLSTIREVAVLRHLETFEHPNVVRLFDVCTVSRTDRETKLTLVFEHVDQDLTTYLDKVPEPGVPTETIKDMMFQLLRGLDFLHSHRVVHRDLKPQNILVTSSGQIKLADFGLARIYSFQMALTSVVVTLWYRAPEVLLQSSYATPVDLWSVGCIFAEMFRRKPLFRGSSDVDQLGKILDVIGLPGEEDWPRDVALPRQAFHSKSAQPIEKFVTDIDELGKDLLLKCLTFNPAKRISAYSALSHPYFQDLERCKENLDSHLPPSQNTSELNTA
T1 sequence (P30281 whole entry partner): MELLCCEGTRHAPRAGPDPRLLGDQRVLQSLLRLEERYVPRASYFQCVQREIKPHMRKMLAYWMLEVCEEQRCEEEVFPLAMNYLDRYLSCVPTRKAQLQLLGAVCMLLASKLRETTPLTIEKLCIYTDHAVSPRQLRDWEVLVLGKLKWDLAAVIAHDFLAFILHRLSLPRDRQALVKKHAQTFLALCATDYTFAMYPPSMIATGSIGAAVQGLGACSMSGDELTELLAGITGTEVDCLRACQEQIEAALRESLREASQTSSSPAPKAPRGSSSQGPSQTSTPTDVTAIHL

CDK9-CYCLINT1 = molecular target: T2, CDK9-CYCLINT1 (Homo sapiens, UniProt P50750); format: biochemical; settings: Table 4a; read-out: CDK9 CyclinT1 IC50
T2 construct: purchased Carna
T2 sequence (P50750 whole entry): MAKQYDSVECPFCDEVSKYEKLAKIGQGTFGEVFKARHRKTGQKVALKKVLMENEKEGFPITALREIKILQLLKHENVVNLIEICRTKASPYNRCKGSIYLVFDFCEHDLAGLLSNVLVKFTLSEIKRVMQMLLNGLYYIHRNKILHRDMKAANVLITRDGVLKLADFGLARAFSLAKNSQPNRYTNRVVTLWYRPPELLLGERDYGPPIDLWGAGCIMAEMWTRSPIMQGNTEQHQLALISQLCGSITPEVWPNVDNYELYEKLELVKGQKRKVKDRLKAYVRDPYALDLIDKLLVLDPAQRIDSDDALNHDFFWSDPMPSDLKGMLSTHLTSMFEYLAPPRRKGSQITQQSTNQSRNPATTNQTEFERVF
T2 sequence (O60563 whole entry partner): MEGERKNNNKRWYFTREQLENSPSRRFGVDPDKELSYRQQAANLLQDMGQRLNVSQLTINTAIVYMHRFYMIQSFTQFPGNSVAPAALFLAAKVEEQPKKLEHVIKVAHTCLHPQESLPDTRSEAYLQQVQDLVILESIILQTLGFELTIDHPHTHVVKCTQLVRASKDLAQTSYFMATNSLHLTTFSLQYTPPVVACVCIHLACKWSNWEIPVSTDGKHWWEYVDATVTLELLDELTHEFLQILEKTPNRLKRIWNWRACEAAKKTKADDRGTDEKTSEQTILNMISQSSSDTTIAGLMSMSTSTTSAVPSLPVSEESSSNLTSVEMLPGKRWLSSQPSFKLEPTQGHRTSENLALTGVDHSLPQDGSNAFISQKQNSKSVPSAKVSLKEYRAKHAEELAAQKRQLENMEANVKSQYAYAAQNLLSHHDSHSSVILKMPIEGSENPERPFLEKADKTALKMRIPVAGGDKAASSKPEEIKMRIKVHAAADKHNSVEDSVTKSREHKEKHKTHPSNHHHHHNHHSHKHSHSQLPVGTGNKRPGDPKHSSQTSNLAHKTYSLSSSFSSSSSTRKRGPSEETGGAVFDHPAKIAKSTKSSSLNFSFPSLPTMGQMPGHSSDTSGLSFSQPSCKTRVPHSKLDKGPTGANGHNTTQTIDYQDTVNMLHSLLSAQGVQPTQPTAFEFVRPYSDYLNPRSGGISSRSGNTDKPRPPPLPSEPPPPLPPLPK

CDK4-CYCLIND1 = CDK4-CYCLIND1 (Homo sapiens, UniProt P11802); settings: a second value in parentheses for some compounds
Sequence of CDK4-CYCLIND1 (P11802 whole entry): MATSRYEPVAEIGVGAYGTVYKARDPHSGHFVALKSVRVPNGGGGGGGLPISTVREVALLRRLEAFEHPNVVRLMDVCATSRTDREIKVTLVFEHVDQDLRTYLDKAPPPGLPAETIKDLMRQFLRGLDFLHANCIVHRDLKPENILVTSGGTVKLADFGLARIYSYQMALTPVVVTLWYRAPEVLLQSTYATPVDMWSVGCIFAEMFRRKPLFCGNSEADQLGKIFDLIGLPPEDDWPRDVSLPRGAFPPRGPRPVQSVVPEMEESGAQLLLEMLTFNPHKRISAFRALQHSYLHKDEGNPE
Sequence of CDK4-CYCLIND1 (P24385 whole entry partner): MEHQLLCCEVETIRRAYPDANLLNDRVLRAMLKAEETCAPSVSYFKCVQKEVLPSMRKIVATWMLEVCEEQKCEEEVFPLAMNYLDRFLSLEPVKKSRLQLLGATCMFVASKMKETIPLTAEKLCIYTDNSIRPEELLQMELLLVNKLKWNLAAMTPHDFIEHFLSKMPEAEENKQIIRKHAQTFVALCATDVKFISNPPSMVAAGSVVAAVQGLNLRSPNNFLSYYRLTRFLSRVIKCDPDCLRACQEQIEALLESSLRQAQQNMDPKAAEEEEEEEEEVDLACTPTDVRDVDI
Protocol: Inhibition assays were performed using microfluidic LabChip 300 Drug Discovery System from Caliper Life Sciences. […] The assay has a total volume of 10 μL consisting of 5 μL of enzyme and buffer and 5 μL of substrate and buffer. The test compounds were diluted in 100% dimethylsulfoxide (DMSO) using 3-fold dilution steps. […] Compounds were tested in a single well for each dilution and the final concentration of DMSO was maintained at 1%.
The assay buffer contained 100 mM HEPES, pH 7.5, 0.01% Triton X-100, 0.1% bovine serum albumin (BSA), 5 mM MgCl2; 1 mM dithiothreitol (DTT), 10 μM sodium orthovanadate, and 10 μM β-glycerophosphate.
The assay was conducted by adding 5 μL of enzyme, adenosine triphosphate (ATP) and buffer to an assay plate. A 100 nL aliquot of the diluted compounds were added to the plate. The assay was initiated by the addition of 5 μL of phosphoenolpyruvate substrate (PEP) in buffer. […] The reaction was terminated by the addition of EDTA. The plates were analyzed using a Caliper LabChip 3000.
Additional inhibition assays were performed as described above.
The assays were conducted as described above for the racemates.

CDK2-CYCLINA = molecular target: T3, CDK2-CYCLINA (Homo sapiens, UniProt P24941); format: biochemical; settings: Table 4a; read-out: CDK2 CyclinA IC50
T3 construct: purchased Millipore

[1] = CDK4 CyclinD1 IC50, Table 4b, lower part

Sequence of CDK7 CyclinH (P50613 whole entry): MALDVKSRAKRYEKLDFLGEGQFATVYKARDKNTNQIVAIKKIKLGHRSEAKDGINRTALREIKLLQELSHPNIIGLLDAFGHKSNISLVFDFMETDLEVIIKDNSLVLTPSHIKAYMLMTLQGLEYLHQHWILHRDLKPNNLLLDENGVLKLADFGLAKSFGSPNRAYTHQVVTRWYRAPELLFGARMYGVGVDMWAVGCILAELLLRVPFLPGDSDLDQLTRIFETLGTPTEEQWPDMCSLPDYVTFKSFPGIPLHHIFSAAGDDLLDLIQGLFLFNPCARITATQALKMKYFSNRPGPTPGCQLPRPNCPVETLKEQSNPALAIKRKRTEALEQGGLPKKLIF
Sequence of CDK7 CyclinH (P51946 whole entry partner): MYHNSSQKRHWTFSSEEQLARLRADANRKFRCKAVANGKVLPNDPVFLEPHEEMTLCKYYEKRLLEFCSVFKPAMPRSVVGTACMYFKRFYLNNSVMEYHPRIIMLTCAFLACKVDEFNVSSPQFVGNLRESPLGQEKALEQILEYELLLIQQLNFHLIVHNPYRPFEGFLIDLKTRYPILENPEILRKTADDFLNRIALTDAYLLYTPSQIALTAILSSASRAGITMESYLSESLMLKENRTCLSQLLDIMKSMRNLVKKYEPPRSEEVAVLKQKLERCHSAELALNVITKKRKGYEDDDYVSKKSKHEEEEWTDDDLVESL
Sequence of CDK7 CyclinH (P51948 whole entry partner): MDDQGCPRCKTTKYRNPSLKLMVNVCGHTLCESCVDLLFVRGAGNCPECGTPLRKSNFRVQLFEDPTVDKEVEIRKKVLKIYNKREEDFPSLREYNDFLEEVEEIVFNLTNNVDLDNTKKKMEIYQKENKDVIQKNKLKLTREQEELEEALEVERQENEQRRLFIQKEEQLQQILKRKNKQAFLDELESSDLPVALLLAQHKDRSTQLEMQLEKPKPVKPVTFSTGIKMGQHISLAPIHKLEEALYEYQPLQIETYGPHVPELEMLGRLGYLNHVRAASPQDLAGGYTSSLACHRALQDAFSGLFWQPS

| Structure (SMILES) | IC50 (CDK7 CyclinH) | IC50 (CDK6-CYCLIND3; Table 4a) | IC50 (CDK9-CYCLINT1) | IC50 (CDK4-CYCLIND1; CDK4 CyclinD1 IC50, Table 4a) | IC50 (CDK2-CYCLINA) | IC50 (CDK6-CYCLIND3; Table 4b, lower part) | IC50 (CDK4-CYCLIND1; [1]) |
| --- | --- | --- | --- | --- | --- | --- | --- |
| CN1CCN(c2ccc(Nc3ncc4c(n3)N(C3CCCC3)C(=O)[C@]3(CCNC3=O)C4)c(F)c2)CC1 [Example D147, (S)-8-cyclopentyl-2-((2-fluoro-4-(4-methylpiperazin-1-yl)phenyl)amino)-5,8-dihydro-7H-spiro[pyrido[2,3-d]pyrimidine-6,3′-pyrrolidine]-2′,7-dione] | 4260 nM | 188 nM | 518 nM | 73.2 nM | 951 nM |  |  |
| COc1cc(N2CCN(C)CC2)ccc1Nc1ncc2c(n1)N(C1CCCC1)C(=O)[C@]1(CCNC1=O)C2 [Example D166, (S)-8-cyclopentyl-2-((2-methoxy-4-(4-methylpiperazin-1-yl)phenyl)amino)-5,8-dihydro-7H-spiro[pyrido[2,3-d]pyrimidine-6,3′-pyrrolidine]-2′,7-dione] | 13900 nM | 79.2 nM | 307 nM |  | 1860 nM |  |  |
| O=C1NCC[C@@]12Cc1cnc(Nc3ccc(-c4cn[nH]c4)cc3)nc1N(C1CCCC1)C2=O [Example D168, (S)-2-((4-(1H-pyrazol-4-yl)phenyl)amino)-8-cyclopentyl-5,8-dihydro-7H-spiro[pyrido[2,3-d]pyrimidine-6,3′-pyrrolidine]-2′,7-dione] | 3100 nM | 30 nM | 6.52 nM |  | 55.4 nM |  |  |
| Cn1cc(-c2ccc(Nc3ncc4c(n3)N(C3CCCC3)C(=O)[C@]3(CCNC3=O)C4)cc2)cn1 [Example D169, (S)-8-cyclopentyl-2-((4-(1-methyl-1H-pyrazol-4-yl)phenyl)amino)-5,8-dihydro-7H-spiro[pyrido[2,3-d]pyrimidine-6,3′-pyrrolidine]-2′,7-dione] | 2820 nM | 9.37 nM | 2.92 nM |  | 33.5 nM |  |  |
| O=C1NCC[C@@]12Cc1cnc(Nc3ccc(N4CCC(N5CCOCC5)CC4)nc3)nc1N(C1CCCC1)C2=O [Example D193, (S)-8-cyclopentyl-2-((6-(4-morpholinopiperidin-1-yl)pyridin-3-yl)amino)-5,8-dihydro-7H-spiro[pyrido[2,3-d]pyrimidine-6,3′-pyrrolidine]-2′,7-dione] |  |  |  |  |  | 2.32 nM | 1.54 nM |
| CC(C)N1CCN(c2ccc(Nc3ncc4c(n3)N(C35CC(C3)C5)C(=O)[C@]3(CCNC3=O)C4)cc2F)CC1 [Example D194, (S)-8-(bicyclo[1.1.1]pentan-1-yl)-2-((3-fluoro-4-(4-isopropylpiperazin-1-yl)phenyl)amino)-5,8-dihydro-7H-spiro[pyrido[2,3-d]pyrimidine-6,3′-pyrrolidine]-2′,7-dione] |  |  |  |  |  | 31.2 nM | 17.4 nM |
| CC(C)n1cc(-c2ccc(Nc3ncc4c(n3)N(C3CCCC3)C(=O)[C@]3(CCNC3=O)C4)cc2)cn1 [Example D195, (S)-8-cyclopentyl-2-((4-(1-isopropyl-1H-pyrazol-4-yl)phenyl)amino)-5,8-dihydro-7H-spiro[pyrido[2,3-d]pyrimidine-6,3′-pyrrolidine]-2′,7-dione] |  |  |  |  |  | 33.7 nM | 23 nM |
| O=C1NCC[C@]12Cc1cnc(Nc3ccc(N4CCNCC4)c(F)c3)nc1N(C13CC(C1)C3)C2=O [Example D196, (R)-8-(bicyclo[1.1.1]pentan-1-yl)-2-((3-fluoro-4-(piperazin-1-yl)phenyl)amino)-5,8-dihydro-7H-spiro[pyrido[2,3-d]pyrimidine-6,3′-pyrrolidine]-2′,7-dione] |  |  |  |  |  | 2400 nM | 1250 nM |
| CN1CCN(c2ccc(Nc3ncc4c(n3)N(C35CC(C3)C5)C(=O)[C@@]3(CCNC3=O)C4)cc2F)CC1 [Example D197, (R)-8-(bicyclo[1.1.1]pentan-1-yl)-2-((3-fluoro-4-(4-methylpiperazin-1-yl)phenyl)amino)-5,8-dihydro-7H-spiro[pyrido[2,3-d]pyrimidine-6,3′-pyrrolidine]-2′,7-dione] |  |  |  |  |  | 5380 nM | 2220 nM |
